Laboratory results taken from patent publication US20110230472A1, “RING-FUSED AZOLE DERIVATIVE HAVING PI3K-INHIBITING ACTIVITY” (Shionogi & Co., Ltd., priority 2008, published 2011).

Assays:
[1] = system: Salmonella typhimurium TA98 line, TA100 line; experiment: FAT test (mutagenicity); design: key: When the mutagenicity is negative, the compound is shown as (−); When positive, the compound is shown as (+); conditions: TA98 and TA100 lines; non-metabolism-activation and metabolism-activation conditions
Experimental: 20 μL of Salmonella enterica subsp. typhimurium (Salmonella typhimurium TA98 line, TA100 line) cryopreserved was inoculated to 10 mL of liquid nutrient medium (2.5% Oxoid nutrient broth No. 2) and then precultured at 37° C. for 10 hours with shaking. Regarding TA98 line, after 9 mL of a bacterial suspension was centrifuged (2000×g, 10 minutes) to remove the culture solution, the bacteria was suspended in 9 mL of Micro F buffer solution (K2HPO4: 3.5 g/L, KH2PO4: 1 g/L, (NH4)2SO4: 1 g/L, tri-sodium citric acid dihydrate: 0.25 g/L, MgSO4.7H2O: 0.1 g/L), and then added to 110 mL of Exposure media (Micro F buffer solution containing biotin: 8 μg/mL, histidine: 0.2 μg/mL, glucose: 8 mg/mL). Regarding TA 100 line, 120 mL of Exposure media was added to 3.16 mL of the bacterial suspension to prepare a test bacterial suspension. 12 μL of a solution of a test substance in DMSO (diluted eight times in a common ratio of 2 from the maximum dose of 50 mg/mL); 12 μL of DMSO as a negative control; 50 μg/mL 4-nitroquinoline-1-oxide solution in DMSO for TA98 line or 0.25 μg/mL 2-(2-furyl)-3-(5-nitro-2-furyl)acrylamide solution in DMSO as a positive control for TA 100 line in the case of a non-metabolism-activation condition; 12 μL of 40 μg/mL 2-aminoanthracene solution in DMSO for TA98 line or 20 μg/mL of 2-aminoanthracene solution in DMSO for TA100 line in the case of a metabolism-activation condition; were each mixed with 588 μL of the test bacterial suspension (in the case of a metabolism activation condition, a mixed solution of 498 μL of the test bacterial suspension and 90 μL S9 mix) and then cultured at 37° C. at 90 minutes with shaking. 460 μL of the bacterial suspension to which a test substance was exposed was mixed with 230 μL of Indicator media (a Micro F buffer solution containing 8 μg/mL biotin, 0.2 μg/mL histidine, 8 mg/mL glucose, and 37.5 μg/mL bromocresol purple). 50 μL thereof was dispensed to microplate 48 wells/dose and then statically cultured at 37° C. for 3 days. In a well containing bacteria which obtained proliferation potency by mutation of the amino acid (histidine) synthetase gene, the change of pH caused the color change from purple to yellow. Thus, in 48 wells per dose, the number of the bacteria-proliferation wells in which the color changed to yellow was counted, compared with a group of negative controls, and then evaluated. When the mutagenicity is negative, the compound is shown as (−). When positive, the compound is shown as (+).

PI-3 kinase γ = PI-3 kinase γ (Homo sapiens, UniProt P48736); experiment: PI3Kγ inhibitory activity (Ki value), HTRF; assay type: biochemical; conditions: Ki=IC50/(1+10 μM ATP/Km)
Sequence of PI-3 kinase γ (P48736 whole entry): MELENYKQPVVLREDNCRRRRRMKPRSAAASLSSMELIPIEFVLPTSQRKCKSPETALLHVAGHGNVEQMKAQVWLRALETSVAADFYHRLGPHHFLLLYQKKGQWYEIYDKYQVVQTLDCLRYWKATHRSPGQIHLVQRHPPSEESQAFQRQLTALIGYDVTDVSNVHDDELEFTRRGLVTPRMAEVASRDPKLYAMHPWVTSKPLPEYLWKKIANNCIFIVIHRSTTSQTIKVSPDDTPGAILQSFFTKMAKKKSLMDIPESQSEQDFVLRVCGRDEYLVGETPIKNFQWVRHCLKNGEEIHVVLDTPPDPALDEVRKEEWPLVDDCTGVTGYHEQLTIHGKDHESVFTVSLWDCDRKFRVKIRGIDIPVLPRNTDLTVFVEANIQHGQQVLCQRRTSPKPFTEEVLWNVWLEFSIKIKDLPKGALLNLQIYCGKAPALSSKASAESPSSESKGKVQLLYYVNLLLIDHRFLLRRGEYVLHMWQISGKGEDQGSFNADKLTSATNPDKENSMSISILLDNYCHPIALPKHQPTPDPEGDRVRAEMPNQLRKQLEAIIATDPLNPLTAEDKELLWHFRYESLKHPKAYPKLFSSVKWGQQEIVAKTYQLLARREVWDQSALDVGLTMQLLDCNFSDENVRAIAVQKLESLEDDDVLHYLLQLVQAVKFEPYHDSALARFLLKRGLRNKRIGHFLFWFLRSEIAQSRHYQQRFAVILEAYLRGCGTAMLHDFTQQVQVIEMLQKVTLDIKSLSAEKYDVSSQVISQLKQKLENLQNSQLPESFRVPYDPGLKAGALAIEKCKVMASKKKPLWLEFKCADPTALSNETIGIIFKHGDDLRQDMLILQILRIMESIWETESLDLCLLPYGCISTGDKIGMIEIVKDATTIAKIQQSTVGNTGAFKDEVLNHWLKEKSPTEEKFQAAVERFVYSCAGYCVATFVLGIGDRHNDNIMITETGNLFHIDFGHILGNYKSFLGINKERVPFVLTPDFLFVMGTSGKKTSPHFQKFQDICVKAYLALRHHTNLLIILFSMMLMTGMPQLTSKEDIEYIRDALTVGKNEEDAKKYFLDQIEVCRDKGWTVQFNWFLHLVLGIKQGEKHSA
In short: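 IC50 was measured by HTRF over 50-0.05 μmol/L compound and fitted by logistic approximation or two-point linear regression. ATP Km came from Lineweaver-Burk plots of HTRF signal at 0.625-80 μmol/L ATP. Ki = IC50/(1+10 μM/Km).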

[2] = system: AKT phosphorylation in human monocyte-like cell line THP-1; experiment: AKT phosphorylation inhibitory activity in MCP-1-stimulated THP-1 cells (ELISA); assay type: cell-based; conditions: 1 μmol/L solution of each compound, MCP-1 stimulation, read-out: AKT phosphorylation inhibition ratio
In short: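 THP-1 cells (6.6×10^6/mL in HBSS) were preincubated 5 min at 37° C with compound at 1 μmol/L (0.2% DMSO), then stimulated with MCP-1 for 30 s. After lysis, phospho-Akt Ser473 was measured by sandwich ELISA (A450); inhibition ratio used no-MCP-1 samples as 0% activity.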

SMILES	mutagenicity (FAT test) [1]	Ki (PI-3 kinase γ)	inhibition [2]
CNC(=O)Nc1cc2n(n1)CCN2c1ccc(S(C)(=O)=O)cc1 [Compound I-89]	(−)		
CNC(=O)Nc1nc2c(s1)CN(c1ccnc(OC)n1)CC2 [Compound I-142]	(−)		
COc1cc(N2CCc3nc(NC(=O)NCC(=O)O)sc3C2)nc(OC)n1 [Compound I-208]		22 nM	
COc1cc(N2CCc3nc(NC(=O)NCc4cc(=O)[nH]o4)sc3C2)nc(OC)n1 [Compound I-279]		29 nM	
CN1CCc2cc(N3CCn4nc(NC(=O)c5cccnc5)cc43)ccc2C1=O [Compound I-347]			80.6%
CN1CCc2cc(N3CCn4nc(NC(=O)c5ccco5)cc43)ccc2C1=O [Compound I-358]	(−)		95.9%
